Assay results published in ChEMBL document CHEMBL1909046, “DrugMatrix in vitro pharmacology data”.

Key:
[1] = DRUGMATRIX: Phorbol Ester radioligand binding (ligand: [3H] PDBu); assay type: cell membranes, Mus musculus, ICR, Brain, Membrane; settings: Not Active = under 50% inhibition at 10 µM
[2] = biological target: Prostaglandin G/H synthase 1 (Homo sapiens, UniProt P23219); test: biochemical; assay type: tissue-based, Platelet; settings: platelet;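 note: inhibition of COX-1 enzyme activity, with arachidonic acid supplied as substrate; in other assays of this panel Not Active means under 50% inhibition at 10 µM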
Sequence of Prostaglandin G/H synthase 1 (P23219 whole entry): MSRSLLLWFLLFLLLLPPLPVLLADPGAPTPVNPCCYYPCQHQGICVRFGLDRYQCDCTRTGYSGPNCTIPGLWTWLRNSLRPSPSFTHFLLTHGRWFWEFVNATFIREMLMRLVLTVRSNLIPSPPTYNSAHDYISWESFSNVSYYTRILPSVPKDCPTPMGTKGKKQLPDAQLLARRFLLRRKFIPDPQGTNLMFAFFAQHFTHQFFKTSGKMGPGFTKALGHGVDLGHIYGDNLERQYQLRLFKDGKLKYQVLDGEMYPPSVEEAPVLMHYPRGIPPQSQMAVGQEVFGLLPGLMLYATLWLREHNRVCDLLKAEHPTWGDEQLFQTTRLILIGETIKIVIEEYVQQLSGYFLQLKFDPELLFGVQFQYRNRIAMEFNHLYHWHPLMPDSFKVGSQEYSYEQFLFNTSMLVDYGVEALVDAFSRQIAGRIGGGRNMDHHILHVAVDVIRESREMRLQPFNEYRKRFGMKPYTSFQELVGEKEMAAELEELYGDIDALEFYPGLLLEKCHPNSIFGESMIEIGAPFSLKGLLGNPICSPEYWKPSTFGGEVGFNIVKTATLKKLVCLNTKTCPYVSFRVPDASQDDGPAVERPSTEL

[3] = biological target: Sigma non-opioid intracellular receptor 1 (Homo sapiens, UniProt Q99720); test: DRUGMATRIX: Sigma1 radioligand binding (ligand: [3H] Haloperidol); assay type: cell membranes, Jurkat, Membrane; settings: Not Active = under 50% inhibition at 10 µM
Sequence of Sigma non-opioid intracellular receptor 1 (Q99720 whole entry): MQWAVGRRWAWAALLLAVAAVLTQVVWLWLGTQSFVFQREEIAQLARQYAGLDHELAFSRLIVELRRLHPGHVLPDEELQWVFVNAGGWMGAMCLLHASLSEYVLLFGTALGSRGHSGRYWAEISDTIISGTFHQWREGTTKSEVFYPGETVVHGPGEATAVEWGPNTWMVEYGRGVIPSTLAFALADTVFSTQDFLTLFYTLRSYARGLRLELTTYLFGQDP

[4] = DRUGMATRIX: Calcium Channel Type L, Benzothiazepine radioligand binding (ligand: [3H] Diltiazem); assay type: cell membranes, Rattus norvegicus, Wistar, Brain, Membrane; settings: Not Active = under 50% inhibition at 10 µM
[5] = DRUGMATRIX: Interleukin IL-1 radioligand binding (ligand: [125I] interleukin 1beta); assay type: cell membranes, Membrane; settings: nih3t3; Not Active = under 50% inhibition at 10 µM
Glycine receptor = Glycine receptor (Rattus norvegicus, UniProt P22771+P24524+P07727+P20781); assay type: cell membranes, Wistar, Spinal cord, Membrane; note: in other assays of this panel Not Active means under 50% inhibition at 10 µM
[6] = DRUGMATRIX: Phosphodiesterase PDE4 enzyme inhibition (substrate: [3H]cAMP + cAMP); settings: u-937; Not Active = under 50% inhibition at 10 µM

Compound | IC50 [1] | Ki [1] | IC50 [2] | IC50 ([3]; jurkat) | IC50 ([4]; read-out: IC50) | Ki ([4]; read-out: Ki) | IC50 [5] | Ki [5] | IC50 (Glycine receptor) | IC50 [6] | Ki [6] | IC50 [4] | Ki [4] | Ki [2] | Ki ([3]; jurkat) | Ki (Glycine receptor) | IC50 ([3]; read-out: IC50) | Ki ([3]; read-out: Ki)
CC[C@H]1CN2CCc3cc(OC)c(OC)cc3[C@@H]2C[C@@H]1C[C@H]1NCCc2cc(OC)c(OC)cc21 [EMETINE] | Not Active | Not Active | Not Active | Not Active | 2.36 µM | 2.09 µM | Not Active | Not Active | Not Active | Not Active | Not Active |  |  |  |  |  |  | 
O=c1cnn([C@@H]2O[C@H](CO)[C@@H](O)[C@H]2O)c(=O)[nH]1 [6-AZAURIDINE] | Not Active | Not Active | Not Active | Not Active |  |  | Not Active | Not Active | Not Active | Not Active | Not Active | Not Active | Not Active |  |  |  |  | 
COC(=O)CCc1ccc(OCC(O)CNC(C)C)cc1 (configuration not stated) [ESMOLOL] | Not Active | Not Active | Not Active | Not Active |  |  | Not Active | Not Active | Not Active | Not Active | Not Active | Not Active | Not Active |  |  |  |  | 
C[C@@H]1O[C@@H](O[C@@H]2C=C3CC[C@@H]4[C@H](CC[C@]5(C)[C@@H](c6ccc(=O)oc6)CC[C@]45O)[C@@]3(C)CC2)[C@H](O)[C@H](O)[C@H]1O [PROSCILLARIDIN] | Not Active | Not Active | Not Active | Not Active |  |  | Not Active | Not Active | Not Active | Not Active | Not Active | Not Active | Not Active |  |  |  |  | 
NYSTATIN | Not Active | Not Active | Not Active | Not Active |  |  | Not Active | Not Active | Not Active | Not Active | Not Active | Not Active | Not Active | Not Active | Not Active | Not Active |  | 
COc1cc(N)c(Cl)cc1C(=O)NC1CCN(CCCOc2ccc(F)cc2)CC1OC (configuration not stated) [CISAPRIDE] | Not Active | Not Active | Not Active |  | 0.802 µM | 0.713 µM | Not Active | Not Active | Not Active | Not Active | Not Active |  |  |  |  |  | 0.994 µM | 0.418 µM
C[C@@H]1C[C@H]2[C@@H]3CCC4=CC(=O)C=C[C@]4(C)[C@@]3(F)[C@@H](O)C[C@]2(C)[C@@]1(O)C(=O)CO [DEXAMETHASONE] | Not Active | Not Active | Not Active | Not Active |  |  | Not Active | Not Active | Not Active | Not Active | Not Active | Not Active | Not Active |  |  |  |  | 
O=C(c1ccccc1C(F)(F)F)N1CCC(Cc2ccccc2)CC1 | Not Active | Not Active | Not Active | Not Active |  |  | Not Active | Not Active | Not Active | Not Active | Not Active | Not Active | Not Active |  |  |  |  | 
Brc1c(NC2=NCCN2)ccc2nccnc12 [BRIMONIDINE] | Not Active | Not Active | Not Active | Not Active |  |  | Not Active | Not Active | Not Active | Not Active | Not Active | Not Active | Not Active |  |  |  |  | 
CC1(C)S[C@@H]2[C@H](NC(=O)[C@H](N)c3ccccc3)C(=O)N2[C@H]1C(=O)O [AMPICILLIN] | Not Active | Not Active | Not Active | Not Active |  |  | Not Active | Not Active | Not Active | Not Active | Not Active | Not Active | Not Active |  |  |  |  | 
C[n+]1ccccc1/C=N/O.[Cl-] [PRALIDOXIME CHLORIDE] | Not Active | Not Active | Not Active | Not Active |  |  | Not Active | Not Active | Not Active | Not Active | Not Active | Not Active | Not Active |  |  |  |  | 
COc1cc2nc(N3CCN(C(=O)c4ccco4)CC3)nc(N)c2cc1OC [PRAZOSIN] | Not Active | Not Active | Not Active | Not Active |  |  | Not Active | Not Active | Not Active | Not Active | Not Active | Not Active | Not Active |  |  |  |  | 
Cc1c(OCC(F)(F)F)ccnc1C[S+]([O-])c1nc2ccccc2[nH]1 (configuration not stated) [LANSOPRAZOLE] | Not Active | Not Active | Not Active | Not Active |  |  | Not Active | Not Active | Not Active | Not Active | Not Active | Not Active | Not Active |  |  |  |  | 
CN1[C@@H]2CC[C@H]1C[C@@H](OC(=O)C(CO)c1ccccc1)C2 (some centres not stated) [ATROPINE] | Not Active | Not Active | Not Active | Not Active |  |  | Not Active | Not Active | Not Active | Not Active | Not Active | Not Active | Not Active |  |  |  |  | 
COc1ccc(C2C(=O)c3ccccc3C2=O)cc1 [ANISINDIONE] | Not Active | Not Active | Not Active | Not Active |  |  | Not Active | Not Active | Not Active | Not Active | Not Active | Not Active | Not Active |  |  |  |  | 
COC(=O)Nc1nc2ccc([S+]([O-])c3ccccc3)cc2[nH]1 (configuration not stated) [OXFENDAZOLE] | Not Active | Not Active | Not Active | Not Active |  |  | Not Active | Not Active | Not Active | Not Active | Not Active | Not Active | Not Active |  |  |  |  | 
CC(C(=O)O)c1ccc2oc(-c3ccc(Cl)cc3)nc2c1 (configuration not stated) [BENOXAPROFEN] | Not Active | Not Active | Not Active | Not Active |  |  | Not Active | Not Active | Not Active | Not Active | Not Active | Not Active | Not Active |  |  |  |  | 
Cc1cc2c(OCC(CNC(C)(C)C)OC(=O)c3ccccc3)cccc2[nH]1 (configuration not stated) [BOPINDOLOL] | Not Active | Not Active | Not Active | Not Active | 2.81 µM | 2.49 µM | Not Active | Not Active | Not Active | Not Active | Not Active |  |  |  |  |  |  | 
Nc1ccn([C@@H]2O[C@H](CO)[C@@H](O)C2(F)F)c(=O)n1 [GEMCITABINE] | Not Active | Not Active | Not Active | Not Active |  |  | Not Active | Not Active | Not Active | Not Active | Not Active | Not Active | Not Active |  |  |  |  | 
COc1ccc2[nH]cc(CCNC(C)=O)c2c1 [MELATONIN] | Not Active | Not Active | Not Active | Not Active |  |  | Not Active | Not Active | Not Active | Not Active | Not Active | Not Active | Not Active |  |  |  |  | 
GADOPENTETATE DIMEGLUMINE | Not Active | Not Active | Not Active | Not Active |  |  | Not Active | Not Active | Not Active | Not Active | Not Active | Not Active | Not Active | Not Active | Not Active | Not Active |  | 
C#CC1(O)CC[C@H]2[C@@H]3CCC4=CC(=O)CC[C@@H]4[C@H]3CC[C@@]21CC (some centres not stated) [NORGESTREL] | Not Active | Not Active | Not Active | Not Active |  |  | Not Active | Not Active | Not Active | Not Active | Not Active | Not Active | Not Active |  |  |  |  | 
C[n+]1ccc(-c2cc[n+](C)cc2)cc1.[Cl-].[Cl-] [PARAQUAT DICHLORIDE] | Not Active | Not Active | Not Active | Not Active |  |  | Not Active | Not Active | Not Active | Not Active | Not Active | Not Active | Not Active |  |  |  |  | 
C[C@@H]1CC[C@@]2(OC1)O[C@H]1[C@@H](O)[C@H]3[C@@H]4CC[C@H]5C[C@@H](O[C@@H]6O[C@H](CO)[C@H](O[C@@H]7O[C@H](CO)C(O)[C@H](O[C@@H]8OC[C@@H](O)[C@H](O)[C@H]8O)[C@H]7O[C@@H]7O[C@H](CO)[C@H](O)[C@H](O[C@@H]8O[C@H](CO)[C@@H](O)[C@H](O)[C@H]8O)[C@H]7O)[C@H](O)[C@H]6O)[C@H](O)C[C@]5(C)[C@H]4CC[C@]3(C)[C@H]1[C@@H]2C (some centres not stated) [DIGITONIN] | Not Active | Not Active | Not Active | Not Active |  |  | Not Active | Not Active | Not Active | Not Active | Not Active | Not Active | Not Active |  |  |  |  | 
Oc1c(Cl)cc(Cl)c(Cl)c1Cc1c(O)c(Cl)cc(Cl)c1Cl [HEXACHLOROPHENE] | Not Active | Not Active | Not Active | Not Active |  |  | Not Active | Not Active | Not Active | Not Active | Not Active | Not Active | Not Active |  |  |  |  | 
